Source: ChEMBL document CHEMBL1201862, “PubChem BioAssay data set” (2004)
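Cultured in 96-well plates, cells were exposed to test compound for 48 hours across five concentrations. GI50 marks 50% less growth.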 The source made the active and inactive calls. Cut-off read from the data, not from the text of the source: active = GI50 up to about 1.1 µM and inactive = higher.

Legend:
Assay in all cases: inhibition of tumour cell growth, NCI panel, 48 h
SNB-75 = system: SNB-75
M19-MEL = system: M19-MEL
KM-20L2 = system: KM-20L2
SNB-78 = system: SNB-78
HCC 2998 = system: HCC 2998
OVCAR-8 = system: OVCAR-8
RXF 631 = system: RXF 631
NCI-H23 = system: NCI-H23
HT-29 = system: HT-29
T47D = system: T47D
SNB-19 = system: SNB-19
TK-10 = system: TK-10
A549 = system: A549
M14 = system: M14
IGROV-1 = system: IGROV-1
CAKI-1 = system: CAKI-1
LXFL 529 = system: LXFL 529
UACC-257 = system: UACC-257
SF-539 = system: SF-539
PC-3 = system: PC-3
SK-OV-3 = system: SK-OV-3
NCI/ADR-RES = system: NCI/ADR-RES
DLD-1 = system: DLD-1
HOP-92 = system: HOP-92
SF-295 = system: SF-295
K562 = system: K562
NCI-H522 = system: NCI-H522
A498 = system: A498
U-251 = system: U-251
MDA-MB-435 = system: MDA-MB-435
HOP-62 = system: HOP-62
COLO 205 = system: COLO 205
NCI-H226 = system: NCI-H226
EKVX = system: EKVX
ACHN = system: ACHN
OVCAR-3 = system: OVCAR-3
DMS-273 = system: DMS-273
MOLT-4 = system: MOLT-4
SR = system: SR
SW-620 = system: SW-620
NCI-H460 = system: NCI-H460
UACC-62 = system: UACC-62
OVCAR-4 = system: OVCAR-4
KM12 = system: KM12
SK-MEL-2 = system: SK-MEL-2
MDA-N = system: MDA-N
HOP-18 = system: HOP-18
BT-549 = system: BT-549
786-0 = system: 786-0
DMS-114 = system: DMS-114
Malme-3M = system: Malme-3M
XF498 = system: XF498
HL-60 = system: HL-60
SN12C = system: SN12C
DU-145 = system: DU-145
RXF 393 = system: RXF 393
LOX IMVI = system: LOX IMVI
SK-MEL-5 = system: SK-MEL-5
CCRF-CEM = system: CCRF-CEM
MDA-MB-231 = system: MDA-MB-231
HCT-116 = system: HCT-116
SK-MEL-28 = system: SK-MEL-28
SF-268 = system: SF-268
Hs-578T = system: Hs-578T
RPMI-8226 = system: RPMI-8226
UO-31 = system: UO-31
OVCAR-5 = system: OVCAR-5
HCT-15 = system: HCT-15

C[N+](C)(C)CC1CCCC1=O (stereo not drawn)
GI50 (SNB-75): 3100 nM (inactive)
GI50 (M19-MEL): 2220 nM (inactive)
GI50 (KM-20L2): 2610 nM (inactive)
GI50 (SNB-78): 3240 nM (inactive)
GI50 (HCC 2998): 16000 nM (inactive)
GI50 (OVCAR-8): 2100 nM (inactive)
GI50 (RXF 631): 14200 nM (inactive)
GI50 (NCI-H23): 4450 nM (inactive)
GI50 (HT-29): 1230 nM (inactive)
GI50 (T47D): 192 nM (active)
GI50 (SNB-19): 20200 nM (inactive)
GI50 (TK-10): 2620 nM (inactive)
GI50 (A549): 19000 nM (inactive)
GI50 (M14): 929 nM (active)
GI50 (IGROV-1): 16000 nM (inactive)
GI50 (CAKI-1): 2480 nM (inactive)
GI50 (LXFL 529): 1260 nM (inactive)
GI50 (UACC-257): 5530 nM (inactive)
GI50 (SF-539): 2980 nM (inactive)
GI50 (PC-3): 1410 nM (inactive)
GI50 (SK-OV-3): 16500 nM (inactive)
GI50 (NCI/ADR-RES): 1940 nM (inactive)
GI50 (DLD-1): 1010 nM (active)
GI50 (HOP-92): 1070 nM (active)
GI50 (SF-295): 19100 nM (inactive)
GI50 (K562): 377 nM (active)
GI50 (NCI-H522): < 10.5 nM (active)
GI50 (A498): 13100 nM (inactive)
GI50 (U-251): 13200 nM (inactive)
GI50 (MDA-MB-435): 1710 nM (inactive)
GI50 (HOP-62): 29800 nM (inactive)
GI50 (COLO 205): 1200 nM (inactive)
GI50 (NCI-H226): 17200 nM (inactive)
GI50 (EKVX): 2160 nM (inactive)
GI50 (ACHN): 1090 nM (active)
GI50 (OVCAR-3): 2360 nM (inactive)
GI50 (DMS-273): 6870 nM (inactive)
GI50 (MOLT-4): 249 nM (active)
GI50 (SR): 339 nM (active)
GI50 (SW-620): 383 nM (active)
GI50 (NCI-H460): 19500 nM (inactive)
GI50 (UACC-62): 1600 nM (inactive)
GI50 (OVCAR-4): 867 nM (active)
GI50 (KM12): 6590 nM (inactive)
GI50 (SK-MEL-2): 5610 nM (inactive)
GI50 (MDA-N): 1690 nM (inactive)
GI50 (HOP-18): 1870 nM (inactive)
GI50 (BT-549): 1000 nM (active)
GI50 (786-0): 2340 nM (inactive)
GI50 (DMS-114): 3240 nM (inactive)
GI50 (Malme-3M): 789 nM (active)
GI50 (XF498): 1870 nM (inactive)
GI50 (HL-60): 406 nM (active)
GI50 (SN12C): 2640 nM (inactive)
GI50 (DU-145): 29.6 nM (active)
GI50 (RXF 393): 2270 nM (inactive)
GI50 (LOX IMVI): 832 nM (active)
GI50 (SK-MEL-5): 5680 nM (inactive)
GI50 (CCRF-CEM): 213 nM (active)
GI50 (MDA-MB-231): 1390 nM (inactive)
GI50 (HCT-116): 1250 nM (inactive)
GI50 (SK-MEL-28): 1890 nM (inactive)
GI50 (SF-268): 9640 nM (inactive)
GI50 (Hs-578T): 3430 nM (inactive)
GI50 (RPMI-8226): 306 nM (active)
GI50 (UO-31): 2500 nM (inactive)
GI50 (OVCAR-5): 8220 nM (inactive)
GI50 (HCT-15): 2180 nM
